In the NIST ThermoML archive (doi:10.1016/j.jct.2018.07.002):
± gives the expanded uncertainty stated by the source.

Legend:
[1] = molar heat capacity at constant pressure; conditions: 100 kPa, Liquid, isoperibol calorimetry
[2] = excess molar enthalpy (molar enthalpy of mixing); xn = mol fraction of the nth substance listed; conditions: 313.15 K, 100 kPa, Liquid, Power-compensation calorimetry

SMILES | molar heat capacity at constant pressure ([1]; 303.15 K) [J/K/mol] | molar heat capacity at constant pressure ([1]; 313.15 K) [J/K/mol] | molar heat capacity at constant pressure ([1]; 323.15 K) [J/K/mol] | molar heat capacity at constant pressure ([1]; 333.15 K) [J/K/mol] | molar heat capacity at constant pressure ([1]; 343.15 K) [J/K/mol] | molar heat capacity at constant pressure ([1]; 353.15 K) [J/K/mol] | molar heat capacity at constant pressure ([1]; 363.15 K) [J/K/mol] | molar heat capacity at constant pressure ([1]; 373.15 K) [J/K/mol] | excess molar enthalpy ([2]; x1 = 0.017) [kcal/mol] | excess molar enthalpy ([2]; x1 = 0.019) [kcal/mol] | excess molar enthalpy ([2]; x1 = 0.023) [kcal/mol] | excess molar enthalpy ([2]; x1 = 0.027) [kcal/mol] | excess molar enthalpy ([2]; x1 = 0.25) [kcal/mol] | excess molar enthalpy ([2]; x1 = 0.5) [kcal/mol]
CCOP(=O)([O-])OCC.CCn1cc[n+](C)c1 [1-ethyl-3-methylimidazolium diethyl phosphate] | 504.73 ± 32 | 507.38 ± 32 | 510.02 ± 32 | 515.3 ± 32 | 523.23 ± 32 | 528.52 ± 32 | 536.44 ± 32 | 541.73 ± 32 | – | – | – | – | – | –
CCOP(=O)([O-])OCC.CCn1cc[n+](C)c1 [1-ethyl-3-methylimidazolium diethyl phosphate] + O | – | – | – | – | – | – | – | – | -0.112 ± 0.00454 | -0.13 ± 0.00526 | -0.154 ± 0.00621 | -0.181 ± 0.00741 | -1.19 ± 0.0478 | -1.26 ± 0.0502
